According to patent EP4603105A1, “PHARMACEUTICAL COMPOSITION CONTAINING CYCLIC COMPOUND HAVING SELECTIVE KRAS INHIBITORY EFFECT AGAINST HRAS AND NRAS” (CHUGAI SEIYAKU KABUSHIKI KAISHA, priority 2022, dated 2024):
Where a SMILES comes first, the peptide text is derived from it. Bridges are numbered along the chain shown (N, C = ends). [ ]: non-standard residue; d: D form. The star is where a group is joined. hPhe(3,5-F2-4-CF3) = N[C@@H](CCc1cc(F)c(C(F)(F)F)c(F)c1)C(=O)O; hPhe(3-Cl-4-CF3) = N[C@@H](CCc1ccc(C(F)(F)F)c(Cl)c1)C(=O)O; NPrPhe(4-CF3) = CCCN[C@@H](Cc1ccc(C(F)(F)F)cc1)C(=O)O; NMeGly(cPent) = CN[C@H](C(=O)O)C1CCCC1; Pro(4,4-F2) = O=C(O)[C@@H]1CC(F)(F)CN1; NMeGly(cBu) = CN[C@H](C(=O)O)C1CCC1; αMeI = CC[C@H](C)[C@](C)(N)C(=O)O; NMeD = CN[C@@H](CC(=O)O)C(=O)O; NMeL = CN[C@@H](CC(C)C)C(=O)O; Morpholide = C1CN(*)CCO1; NMeA = CN[C@@H](C)C(=O)O; Ac5c = NC1(C(=O)O)CCCC1; Aze = O=C(O)[C@@H]1CCN1; NPrGly = CCCNCC(=O)O; NEtG = CCNCC(=O)O; Sar = CNCC(=O)O

Legend:
HRAS wild-type protein = HRAS wild-type protein (Homo sapiens, UniProt P01112); assay: Binding to HRAS by surface plasmon resonance (SPR), KD and KD ratio to KRAS
Outline: (§1)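 Each cycle, GDP-bound biotin-Avi RAS was captured (~100–300 RU), compound concentrations were injected low to high for 75 s each at 100 µL/min, then the chip was regenerated. Buffer: HBS pH 7.4, 10 mM MgCl2, 10 µM GDP, 1 mM DTT, 4% DMSO; 30°C. KD from a 1:1 binding model.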

[1] = test system: human lung cancer strain NCI-H441; format: cell-based
Outline: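 Signal came from […] measured per well once the reagent was added. Beforehand, cells were cultured at 37°C and 5% carbon dioxide on a compound series serially diluted in dimethyl sulfoxide.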

[2] = target: GDP-bound NRAS wild-type protein (Homo sapiens, UniProt P01111); assay: Binding to NRAS by surface plasmon resonance (SPR), KD and KD ratio to KRAS
Outline: as §1

[3] = ratio of the KD value with respect to HRAS wild-type protein to the KD value with respect to KRAS
[4] = ratio of the KD value with respect to GDP-bound NRAS wild-type protein to the KD value with respect to KRAS
[5] = ratio of KD for HRAS wild-type protein to KD for KRAS
[6] = ratio of KD for GDP-bound NRAS wild-type protein to KD for KRAS

Chain of GDP-bound NRAS wild-type protein (P01111 whole entry): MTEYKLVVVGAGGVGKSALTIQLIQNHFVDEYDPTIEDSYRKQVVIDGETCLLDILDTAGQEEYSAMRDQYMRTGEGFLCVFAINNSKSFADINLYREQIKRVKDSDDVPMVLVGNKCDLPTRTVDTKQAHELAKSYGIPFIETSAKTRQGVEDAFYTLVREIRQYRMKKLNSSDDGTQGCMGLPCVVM
Chain of HRAS wild-type protein (P01112 whole entry): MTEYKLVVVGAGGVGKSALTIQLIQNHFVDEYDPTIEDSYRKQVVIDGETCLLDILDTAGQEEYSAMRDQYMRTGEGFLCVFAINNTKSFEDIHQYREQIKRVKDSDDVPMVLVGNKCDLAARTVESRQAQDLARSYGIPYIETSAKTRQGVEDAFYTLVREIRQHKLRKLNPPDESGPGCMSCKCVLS

SMILES	IC50 [1]	HRAS /KRAS (HRAS wild-type protein; [3])	NRAS /KRAS [2, 4]	HRAS /KRAS (HRAS wild-type protein; [5])	NRAS /KRAS [2, 6]
CCC[C@H]1C(=O)N[C@@H]([C@@H](C)CC)C(=O)N(C)CC(=O)N(C)[C@H]2C/C=C\CCN(C2=O)[C@@H](Cc2ccc(C)cc2)C(=O)N(C)CC(=O)N[C@@H](CCc2ccc3c(C)cn(C)c3c2)C(=O)N2C[C@H](OCC)C[C@H]2C(=O)NC2(CC(C)(C)C2)C(=O)N(C)[C@@H](C2CCCC2)C(=O)N(C)[C@H](C(=O)N(C)C)CC(=O)N1C [PP2899]	0.0188 µM			B (a compound having 3 or more and less than 10 is denoted as B)	A (a compound having 10 or more and less than 20 is denoted as A)
CC[C@H](C)[C@@H]1NC(=O)[C@H](CC(C)C)N(C)C(=O)C[C@@H](C(=O)N2CCOCC2)N(C)C(=O)[C@H](C2CCCC2)N(C)C(=O)C2(CCOCC2)NC(=O)[C@@H]2CCCN2C(=O)[C@H](CCc2cc(F)c(C(F)(F)F)c(F)c2)NC(=O)CN(C)C(=O)[C@H](Cc2ccc(C(F)(F)F)cc2)N2CCCCC[C@@H](C2=O)N(C)C(=O)CN(C)C1=O [PP0502]	1.82 µM	B (a compound having 3 or more and less than 10 is denoted as B)	A (a compound having 10 or more and less than 20 is denoted as A)		
CC[C@H](C)[C@@H]1NC(=O)[C@H](CC(C)C)N(C)C(=O)C[C@@H](C(=O)N2CCOCC2)N(C)C(=O)[C@H](C2CCCC2)N(C)C(=O)C2(CCCC2)NC(=O)[C@@H]2[C@@H](O)CCN2C(=O)[C@H](CCc2cc(F)c(C(F)(F)F)c(F)c2)NC(=O)CN(C)C(=O)[C@H](Cc2ccc(C(F)(F)F)cc2)N2CCCCC[C@@H](C2=O)N(C)C(=O)CN(C)C1=O [PP0662]	1.57 µM	B (a compound having 3 or more and less than 10 is denoted as B)	B (a compound having 3 or more and less than 10 is denoted as B)		
CCCN1C(=O)CN(C)C(=O)CN(C)C(=O)[C@H]([C@@H](C)CC)NC(=O)[C@H](CC(C)C)N(C)C(=O)C[C@@H](C(=O)N2CCOCC2)N(C)C(=O)[C@H](C2CCCC2)N(C)C(=O)[C@](C)([C@@H](C)CC)NC(=O)[C@@H]2CCCN2C(=O)[C@H](CCc2cc(F)c(C(F)(F)F)c(F)c2)NC(=O)CN(C)C(=O)[C@@H]1Cc1ccc(C(F)(F)F)cc1 [PP0757] ([NMeL]I[Sar][Sar][NPrPhe(4-CF3)][Sar][hPhe(3,5-F2-4-CF3)]P[αMeI][NMeGly(cPent)][NMeD]-Morpholide; lactam N-11)	0.48 µM	C (A compound having a KD ratio of 0.1 or more and less than 3 is denoted as C)	B (a compound having 3 or more and less than 10 is denoted as B)		
CC[C@H](C)[C@@H]1NC(=O)[C@H](CC(C)C)N(C)C(=O)C[C@@H](C(=O)N2CCOCC2)N(C)C(=O)[C@H](C2CCCC2)N(C)C(=O)C2(CCCC2)NC(=O)[C@H](C)N(CC)C(=O)[C@H](CCc2cc(F)c(C(F)(F)F)c(F)c2)NC(=O)CN(C)C(=O)[C@H](Cc2ccc(C(F)(F)F)cc2)N2CCCCC[C@@H](C2=O)N(C)C(=O)CN(C)C1=O [PP0515]	0.633 µM	B (a compound having 3 or more and less than 10 is denoted as B)	B (a compound having 3 or more and less than 10 is denoted as B)		
CC[C@H](C)[C@@H]1NC(=O)[C@H](CCOC)N(C)C(=O)C[C@@H](C(=O)N(C)CC)N(C)C(=O)[C@H](C2CCCC2)N(C)C(=O)C2(CC(C)(C)C2)NC(=O)[C@@H]2C[C@H](C)CN2C(=O)[C@H](CCc2cc(F)c(C(F)(F)F)c(F)c2)NC(=O)CN(C)C(=O)[C@H](Cc2ccc(C(F)(F)F)cc2)N2CC/C=C\C[C@@H](C2=O)N(C)C(=O)CN(C)C1=O [PP1972]	0.0132 µM	A (a compound having 10 or more and less than 20 is denoted as A)	A (a compound having 10 or more and less than 20 is denoted as A)		
CCO[C@@H]1C[C@H]2C(=O)NC3(CCC3)C(=O)N(C)[C@@H](C3CCCCC3)C(=O)N(C)[C@H](C(=O)N(C)C)CC(=O)N(C)[C@@H](CC)C(=O)N[C@@H]([C@@H](C)CC)C(=O)N(C)CC(=O)N(C)[C@H]3C/C=C\CCN(C3=O)[C@@H](Cc3ccc(C(F)(F)F)cc3)C(=O)N(C)CC(=O)N[C@@H](CCc3cc(F)c(C(F)(F)F)c(F)c3)C(=O)N2C1 [PP1086]	0.0224 µM			A (a compound having 10 or more and less than 20 is denoted as A)	AA (a compound having 20 or more is denoted as AA)
CCCN1CC(=O)NC2(CCCC2)C(=O)N(C)[C@@H](C2CCCC2)C(=O)N(C)[C@H](C(=O)N2CCOCC2)CC(=O)N(C)[C@@H](CC(C)C)C(=O)N[C@@H]([C@@H](C)CC)C(=O)N(CC)CC(=O)N(C)CC(=O)N(CCC)[C@@H](Cc2ccc(C(F)(F)F)cc2)C(=O)N(C)CC(=O)N[C@@H](CCc2ccc(C(F)(F)F)c(Cl)c2)C1=O [PP0301] ([NMeL]I[NEtG][Sar][NPrPhe(4-CF3)][Sar][hPhe(3-Cl-4-CF3)][NPrGly][Ac5c][NMeGly(cPent)][NMeD]-Morpholide; lactam N-11)	0.0882 µM			C (A compound having a KD ratio of 0.1 or more and less than 3 is denoted as C)	B (a compound having 3 or more and less than 10 is denoted as B)

Further compounds by falling IC50 [1], results first:

IC50 [1]	SMILES	HRAS /KRAS (HRAS wild-type protein; [3])	NRAS /KRAS [2, 4]	HRAS /KRAS (HRAS wild-type protein; [5])	NRAS /KRAS [2, 6]
0.0131 µM	CCO[C@@H]1C[C@H]2C(=O)NC3(CCC3)C(=O)N(C)[C@@H](C3CCCC3)C(=O)N(C)[C@H](C(=O)N(C)C)CC(=O)N(C)[C@H]3CCCCCCc4ccc(cc4)C[C@@H](C(=O)N(C)CC(=O)N[C@@H](CCc4ccc(C(F)(F)F)c(OC)c4)C(=O)N2C1)N1CC/C=C\C[C@@H](C1=O)N(C)C(=O)CN(C)C(=O)[C@H]([C@@H](C)CC)NC3=O [PP2264]	A (a compound having 10 or more and less than 20 is denoted as A)	AA (a compound having 20 or more is denoted as AA)		
0.0096 µM	CC[C@H](C)[C@@H]1NC(=O)[C@H](C)N(C)C(=O)C[C@@H](C(=O)N2CCOCC2)N(C)C(=O)[C@H](C2CCCC2)N(C)C(=O)C2(CCC2)NC(=O)[C@@H]2CC(F)(F)CN2C(=O)[C@H](CCc2cc(F)c(C(F)(F)F)c(F)c2)NC(=O)CN(C)C(=O)[C@H](Cc2ccc(C(F)(F)F)cc2)N2CCCC[C@@H](C2=O)N(C)C(=O)CN(C)C1=O [PP0582]	B (a compound having 3 or more and less than 10 is denoted as B)	C (A compound having a KD ratio of 0.1 or more and less than 3 is denoted as C)		
0.0085 µM	CCO[C@@H]1C[C@H]2C(=O)NC3(CC(C)(C)C3)C(=O)N(C)[C@@H](C(CC)CC)C(=O)N(C)[C@H](C(=O)N(C)C)CC(=O)N(C)[C@@H](CC)C(=O)N[C@@H]([C@@H](C)CC)C(=O)N(C)CC(=O)N(C)[C@H]3C/C=C\CCN(C3=O)[C@@H](Cc3ccc(C)cc3)C(=O)N(C)CC(=O)N[C@@H](CCc3ccc(C(F)(F)F)c(OC)c3)C(=O)N2C1 [PP2170]	A (a compound having 10 or more and less than 20 is denoted as A)	A (a compound having 10 or more and less than 20 is denoted as A)		
0.0079 µM	CCO[C@@H]1C[C@H]2C(=O)NC3(CC(C)(C)C3)C(=O)N(C)[C@@H](C(CC)CC)C(=O)N(C)[C@H](C(=O)N(C)C)CC(=O)N(C)[C@H]3CCC/C=C/c4ccc(cc4)C[C@@H](C(=O)N(C)CC(=O)N[C@@H](CCc4ccc(Cl)c(Cl)c4)C(=O)N2C1)N1CC/C=C\C[C@@H](C1=O)N(C)C(=O)CN(C)C(=O)[C@H]([C@@H](C)CC)NC3=O [PP2580]			A (a compound having 10 or more and less than 20 is denoted as A)	AA (a compound having 20 or more is denoted as AA)
0.0066 µM	CCC[C@H]1C(=O)N[C@@H](C2CCCC2)C(=O)N(C)CC(=O)N(C)[C@H]2C/C=C\CCN(C2=O)[C@@H](Cc2ccc(C)cc2)C(=O)N(C)CC(=O)N[C@@H](CCc2ccc(C(F)(F)F)c(Cl)c2)C(=O)N2C[C@H](OCC)C[C@H]2C(=O)NC2(CC(C)(C)C2)C(=O)N(C)[C@@H](CC(C)(C)C)C(=O)N(C)[C@H](C(=O)N(C)C)CC(=O)N1C [PP2196]	B (a compound having 3 or more and less than 10 is denoted as B)	A (a compound having 10 or more and less than 20 is denoted as A)		
0.0058 µM	CCCOC[C@H]1C(=O)N[C@@H]([C@@H](C)CC)C(=O)N2CCC[C@H]2C(=O)N(C)[C@H]2C/C=C\CCN(C2=O)[C@@H](Cc2ccc(C(F)(F)F)cc2)C(=O)N(C)CC(=O)N[C@@H](CCc2ccc(C(F)(F)F)c(OC)c2)C(=O)N2C[C@H](OCC)C[C@H]2C(=O)N(C)C2(CCC2)C(=O)N(C)[C@@H](C2CCCC2)C(=O)N(C)[C@H](C(=O)N(C)C)CC(=O)N1C [PP2322]	B (a compound having 3 or more and less than 10 is denoted as B)	A (a compound having 10 or more and less than 20 is denoted as A)		
0.0054 µM	CCCN1C(=O)[C@@H]2CCN2C(=O)[C@H](C)N(C)C(=O)[C@H]([C@@H](C)CC)NC(=O)[C@H](C2CCC2)N(C)C(=O)C[C@@H](C(=O)N2CCOCC2)N(C)C(=O)[C@H](C2CCCC2)N(C)C(=O)C2(CCCC2)NC(=O)[C@@H]2CC(F)(F)CN2C(=O)[C@H](CCc2ccc(C(F)(F)F)c(Cl)c2)NC(=O)CN(C)C(=O)[C@@H]1Cc1ccc(C(F)(F)F)cc1 [PP0204] ([NMeGly(cBu)]I[NMeA][Aze][NPrPhe(4-CF3)][Sar][hPhe(3-Cl-4-CF3)][Pro(4,4-F2)][Ac5c][NMeGly(cPent)][NMeD]-Morpholide; lactam N-11)			C (A compound having a KD ratio of 0.1 or more and less than 3 is denoted as C)	C (A compound having a KD ratio of 0.1 or more and less than 3 is denoted as C)
